Source: patent US20100196492A1, “ELECTROSTATIC COATING OF PARTICLES FOR DRUG DELIVERY” (priority 2007, published 2010)

How the values were obtained:
[1] = test system: HUVECs; experiment: GFP transfection of confluent HUVECs in 12% serum, FACS; format: cell-based, Human; details: 40 w/w C32; N/P 1.55
Text: GFP Transfections. Fluorescent Activated Cell Sorting (FACS) and enhanced green fluorescent protein (EGFP) DNA were utilized to determine the efficacy of nanoparticle gene delivery. FACS data was interpreted by using a two-dimensional contour plot that compares the ratio of EGFP channel fluorescence (x-axis) to yellow channel autofluorescence (y-axis) for greater accuracy than a one-dimensional histogram as previously described. […] These experiments took place under conditions generally seen as difficult for in vitro transfection, but important for an in vivo cardiovascular application: fully confluent, and therefore non-dividing, primary cells in the presence of a high concentration of serum proteins.
GFP Transfections. Non-viral nanoparticle transfections were performed on confluent HUVECs in the presence of 12% serum. HUVECs were seeded (75,000 cells/well) into clear 24-well plates (Becton Dickinson, Franklin Lakes, N.J., USA) at 24 hours prior to transfection to allow for growth to confluence. Nanoparticles were constructed as previously mentioned using a 6 μg DNA basis per well. Then 150 μL of each polymer/DNA/peptide nanoparticle solution was added to 1.00 mL of FBS supplemented EGM-2 media (12% Serum). […]
Flow Cytometry. GFP expression was measured using Fluorescence Activated Cell Sorting (FACS) on a FACSCalibur (Becton Dickinson, San Jose, Calif., USA). […]

[2] = test system: LS174T cells; experiment: Cytotoxicity of gelonin coated C32/DNA particles; format: cell-based; details: single treatment; 70 w/w C32, 600 ng DNA, 100 nM gelonin; colon cancer cells
Experimental: FIG. 14. Cytotoxity of composition on cells using a cytotoxic drug itself as the coating. 70 w/w C32 particles with 600 ng DNA were coated with 100 nM gelonin (a 28 kD protein) to test the cytotoxicity of the compostion in LS174T cells.
Unformulated gelonin is unable to reach the cytoplasm unassisted. In constrast, the gelonin coated nanoparticles are able to be effectively internalized into the cell and released from the endosomal compartment into the cytoplasm, where they are active.

Row | Substance | transfection of HUVECs (FACS gating of GFP) [1] | cells killed [2]
1 | EEEEEEEEEEEEGGGGGGGRDGS [E12-RDG] | do not | 
2 | gelonin |  | unable to kill any of the cells
